# Data taken from patent US9034876B2, “Treatment of chronic inflammation with a 1,2,4-triazolo [1,5a] pyridine derivative” (Cephalon, Inc., priority 2010, dated 2015).
# Where two headings read alike, the source gives them in different places.
# Key:
# human JAK1 = target: T1, human JAK1 (Homo sapiens, UniProt P23458); test: JAK1 kinase enzyme assay, TRF detection; format: biochemical; settings: relative to JAK2
# T1 construct: host or cells: baculovirus expression
# Protocol: The kinase activity of baculovirus-expressed human JAK kinases (JAK1, JAK2, JAK3 or TYK2) was measured using the time-resolved fluorescence (TRF) detection system as described elsewhere [17]. Each 96-well Costar high binding plate (Corning, Corning, N.Y.) was coated with 100 μl/well of 10 μg/ml neutravidin (Pierce Biotechnology, Rockford, Ill.) in TBS at 37° C. for 2 h, followed by 100 μl/well of 1 μg/ml 15-mer peptide substrate (biotinyl-amino-hexanoyl-[sequence]-amide, Infinity Biotech Research and Resource, Aston, Pa.) at 37° C. for 1 h. The kinase assay mixture (total volume=100 μl/well) consisting of 20 mM HEPES (pH 7.2), ATP (Km level for each kinase), 1 mM MnCl2, 0.1% BSA, and test Compound (diluted in DMSO; 2.5% DMSO final in assay) was added to the assay plate. The concentrations of ATP used were as follows: 0.2 μM ATP for JAK1, JAK2 and TYK2; 0.1 μM ATP for JAK3. Enzyme was added and the reaction was allowed to proceed for 20 min at RT. […] Plates were agitated for 10 min and the fluorescence of the resulting solution measured using the PerkinElmer EnVision® 2102 or 2104 multi-label plate reader. IC50 values were determined using the 4-parameter logistic model in XLFit® 4 (IDBS, Ltd., Guildford, UK).
# [1] = Compound quantification (PK) in plasma, paw and spleen of CAIA mice; format: in vivo; settings: DBA/1, mouse, oral, day 20, mean±SEM, N=3; for concentration at 2 h: 2 hrs post-administration; for concentration at 6 h: 6 hrs post-administration
# Protocol: FIG. 2B: Depicts the results of a PK (pharmacokinetic) study of Compound A, 55 mg/kg, 30 mg/kg and 10 mg/kg, p.o., s.i.d. (once daily), in the plasma, paw and spleen of treated mice, N=3 mice per group tested. The data shown in the figure represents the mean±SEM (standard error of the mean).
# While the level of Compound A in the target tissue, i.e., the paw, was relatively low, the levels of Compound A were relatively constant between the two time points for the 55 mg/kg treatment group. […] The data (mean±SEM, N=3) represented in FIG. 2B is tabulated below:
# Plasma and protein extraction from paw and spleen samples were submitted for quantitative analysis to determine the respective compound concentrations. Blood samples were collected into heparinized tubes and placed on wet ice until centrifuged (16,000×g, 5 minutes) to separate the plasma. Supernatant was collected and stored at −20° C. pending analysis. At the time of analysis, two volumes of cold acetonitrile containing an internal standard (alprenolol) were added to each sample which were then vortexed and centrifuged. The supernatants were removed, placed into an auto-sampler vial and the amount of compound present in the samples was analyzed by liquid chromatograph/mass spectrometry (LC-MS-MS). The concentration of compound in the samples was quantified against a mouse plasma standard curve made via serial dilution in a concentration range from 5 to 20,000 ng/mL. Samples containing concentrations greater than 10% above the top of the standard curve were diluted 1:10 with acetonitrile. The limit of detection for plasma, paw and spleen were <10 ng/ml.
# serum and paw cytokines = test: CIA model, serum and paw cytokines (Luminex bead assay); format: in vivo, female DBA/1 mice
# Protocol: Female DBA/1 mice were injected with purified collagen type II in CFA i.d. (intradermal), then boosted with collagen type II in IFA, s.c., (subcutaneous) on day 21 followed by a day 28 LPS injection i.p. to induce arthritis (CIA). Mice that scored a ‘1’ or better for each paw were considered arthritic and entered into the study. Treatments started after 7-10 days of arthritis induction. Compound A was provided orally, b.i.d., for all doses tested; Dex was administered i.p. at 1.5 mg/kg, three times a week; and vehicle (PEG400+1% DMSO) was provided orally, b.i.d.
# FIGS. 4C-1 through 4C-4: Depict concentrations of various serum cytokines (IL-12, IL-2, IL-10 and TNFα) in arthritic paws in each treatment group.
# Frozen plasma at −80° C. was thawed on ice, vortexed, then centrifuged for 10 minutes to remove debris and aggregates. A total of 25-50 μl of serum was used for Luminex® assays following the manufacturer's instruction. Ten different mouse cytokines were measured using the mouse cytokine 10-plex bead kit (Invitrogen, Carlsbad, Calif.). […]
# A more detailed description of this method can be found described elsewhere (Lu et al, 2010, submitted for publication). […] Protein concentration was measured using a BCA protein assay (Pierce, Rockford, Ill.) and adjusted to 3 mg/ml. […]
# [2] = system: collagen-induced arthritis (CIA); test: CIA model, joint histopathology; format: in vivo, female DBA/1 mice
# Protocol: Tissues were also stained with Safranin-O to detect matrix degeneration and this information was used for scoring. The data in the figure represents mean±SEM, statistics were performed using Prism® software and 2-way ANOVA analysis, *p<0.05, **p<0.01, ***p<0.001. H&E and safranin-O stained paraffin wax embedded carpus and tarsus sections were scored by a board certified, independent pathologist for the criteria described in the materials and methods. Tabulated data represent mean±SD values for the tarsus only. Statistics were performed using 2-way ANOVA analysis, *p<0.05; **p<0.01; ***p<0.001, N=5 mice per group tested. At the end of each experiment, front and hind paws (including carpus and tarsus) were removed from the body of the animal for histological analysis. Skin from the ends of the digits was removed and the metatarsal region skin perforated using surgical scissors to allow full decalcification. Samples followed a decalcification procedure using formic acid as described elsewhere [21, 22]. After 7-10 days of decalcification, samples were washed for 2 hours in distilled water and stored in 70% ethanol at 4° C. until ready to be processed. Samples were paraffin embedded, sectioned and stained with Hematoxylin and Eosin (H&E) stain, also Safranin-O for matrix degradation (images not shown, used by pathologist for scoring). All histology work was performed at the Wistar Institute (Philadelphia, Pa.). […] A total of five mice from each group were analyzed via histopathology, 10× representative images are shown for each group tested.
# [3] = system: carrageenan-induced inflammation; test: Air pouch mouse model of carrageenan-induced inflammation; format: in vivo, Balb/c mice; settings: 10, 30 and 55 mg/kg into the pouch, 24 hours, p<0.05 vs vehicle
# Protocol: Balb/c mice were induced for air pouch initiation (see materials and methods) using sterile air. Carrageenan at 1% in saline was injected directly into the pouch followed by treatment with Compound A or dexamethasone (Dex) 1 hour later. One-hundred microliters of air pouch fluid was removed 24 hours post-administration. FIG. 5A: Depicts total cell count using 7-AAD exclusion via flow cytometeric analysis and BD TruCount beads. FIG. 5B: Depicts fluid supernatant IL-6 concentration as determined by Luminex® cytokine analysis. FIG. 5C: Depicts hemoglobin content as assessed by the Drabkin's assay. All data shown in the figures represent mean±SEM, and statistics were performed using 2-way ANOVA analysis, *p<0.05, N=5 mice per group tested. To test the impact of Compound A inhibition of JAK2 at the cellular level, the mouse air pouch model (APM) was utilized. Air-filled subcutaneous pouches were maintained under sterile conditions and injected with 1% carrageenan simultaneously with Compound A at 10, 30 and 55 mg/kg. Saline alone (vehicle) or dexamethasone at 1.5 mg/kg were used as controls. […] Briefly, Balb/c mice were injected s.c. with 4 ml of sterile air on day −5, baseline measurements were recorded and mice were randomized into groups. Mice entered the study upon air pouch maintenance by day −3 when 2 ml of sterile air is injected for air pouch maintenance. On day 0 mice were given a 1% carrageenan (Sigma, St. Louis, Mo.) injection suspended in saline directly into the air pouch. This induces a rapid inflammatory influx of primarily neutrophils and macrophage. The test compounds were provided in saline at mg/kg concentrations in 100 μl total volume and introduced directly into the air pouch simultaneously with the carrageenan injection, (1% carrageenan in saline). […] Cellular exudates were centrifuged, supernatants were processed for Luminex cytokine analysis, and the cell pellets were counted for total live and dead cells. […] Hemoglobin content was determined using the Drabkin's assay (Sigma, St. Louis, Mo.).
# [4] = paw, 10 mg/kg p.o., read-out: concentration in paw
# [5] = paw, 30 mg/kg p.o., read-out: concentration in paw
# [6] = paw, 55 mg/kg p.o., read-out: concentration in paw
# [7] = plasma, 10 mg/kg p.o., read-out: concentration in plasma
# [8] = plasma, 30 mg/kg p.o., read-out: concentration in plasma
# [9] = plasma, 55 mg/kg p.o., read-out: concentration in plasma
# [10] = spleen, 10 mg/kg p.o., read-out: concentration in spleen
# [11] = spleen, 30 mg/kg p.o., read-out: concentration in spleen
# [12] = spleen, 55 mg/kg p.o., read-out: concentration in spleen
# T1 sequence (P23458 whole entry): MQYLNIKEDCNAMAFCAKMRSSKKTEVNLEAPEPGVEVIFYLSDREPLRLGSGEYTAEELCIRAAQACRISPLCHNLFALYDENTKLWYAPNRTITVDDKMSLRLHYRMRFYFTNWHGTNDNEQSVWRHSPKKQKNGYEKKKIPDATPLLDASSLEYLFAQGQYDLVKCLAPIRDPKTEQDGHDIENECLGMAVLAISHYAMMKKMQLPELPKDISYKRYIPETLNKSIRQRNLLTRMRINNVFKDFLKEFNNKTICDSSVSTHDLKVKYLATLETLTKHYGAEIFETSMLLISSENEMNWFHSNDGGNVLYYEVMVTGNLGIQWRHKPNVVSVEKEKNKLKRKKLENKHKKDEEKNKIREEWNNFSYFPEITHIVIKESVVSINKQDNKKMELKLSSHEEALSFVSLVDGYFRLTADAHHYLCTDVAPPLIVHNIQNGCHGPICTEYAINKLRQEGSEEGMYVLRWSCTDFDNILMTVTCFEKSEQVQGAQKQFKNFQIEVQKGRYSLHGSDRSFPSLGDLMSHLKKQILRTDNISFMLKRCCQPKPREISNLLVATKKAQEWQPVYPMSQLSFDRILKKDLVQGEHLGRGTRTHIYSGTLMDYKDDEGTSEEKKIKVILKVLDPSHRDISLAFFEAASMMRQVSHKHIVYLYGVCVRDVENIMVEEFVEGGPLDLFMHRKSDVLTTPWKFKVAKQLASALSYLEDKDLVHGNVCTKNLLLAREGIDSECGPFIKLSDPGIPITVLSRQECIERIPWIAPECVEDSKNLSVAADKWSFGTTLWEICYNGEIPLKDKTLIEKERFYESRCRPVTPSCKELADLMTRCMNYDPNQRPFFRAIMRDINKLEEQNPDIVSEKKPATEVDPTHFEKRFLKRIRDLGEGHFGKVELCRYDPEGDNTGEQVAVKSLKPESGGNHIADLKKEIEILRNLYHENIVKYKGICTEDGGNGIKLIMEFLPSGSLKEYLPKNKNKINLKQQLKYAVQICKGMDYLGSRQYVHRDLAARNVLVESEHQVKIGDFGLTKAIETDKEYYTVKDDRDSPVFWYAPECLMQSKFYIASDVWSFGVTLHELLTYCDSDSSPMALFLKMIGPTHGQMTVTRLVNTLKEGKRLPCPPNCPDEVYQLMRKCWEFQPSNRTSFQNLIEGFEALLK
compound,measurement,setting,value
"CN1CCN(c2cccc(Nc3nc4c(-c5ccc(S(C)(=O)=O)cc5)cccn4n3)c2)CC1 [Compound A, [8-(4-Methanesulfonyl-phenyl)-[1,2,4]triazolo[1,5-a]pyridin-2-yl]-[3-(4-methyl-piperazin-1-yl)-phenyl]-amine]",selectivity versus JAK1,human JAK1,> 40 fold
same,concentration at 2 h,[1]; [4],214 ± 12.4 ng/mL
same,concentration at 6 h,[1]; [4],172 ± 48.7 ng/mL
same,concentration at 2 h,[1]; [5],508 ± 213 ng/mL
same,concentration at 6 h,[1]; [5],376 ± 84.7 ng/mL
same,concentration at 2 h,[1]; [6],660 ± 81.1 ng/mL
same,concentration at 6 h,[1]; [6],472 ± 74.3 ng/mL
same,concentration at 2 h,[1]; [7],1160 ± 48.1 ng/mL
same,concentration at 6 h,[1]; [7],433 ± 56.7 ng/mL
same,concentration at 2 h,[1]; [8],2040 ± 693 ng/mL
same,concentration at 6 h,[1]; [8],1310 ± 258 ng/mL
same,concentration at 2 h,[1]; [9],3160 ± 456 ng/mL
same,concentration at 6 h,[1]; [9],1480 ± 138 ng/mL
same,concentration at 2 h,[1]; [10],673 ± 102 ng/mL
same,concentration at 6 h,[1]; [10],273 ± 50.4 ng/mL
same,concentration at 2 h,[1]; [11],1330 ± 113 ng/mL
same,concentration at 6 h,[1]; [11],1170 ± 395 ng/mL
same,concentration at 2 h,[1]; [12],3900 ± 427 ng/mL
same,concentration at 6 h,[1]; [12],2350 ± 433 ng/mL
same,"serum and paw cytokines (IL-12, IL-2, IL-10, TNFα, IL-4) and spleen IL-12",serum and paw cytokines; all three doses,decrease in several serum and paw cytokines
same,serum IL-12 level,"serum and paw cytokines; all three doses (30, 55, 100 mg/kg)",significantly decrease the level of IL-12 comparable to that observed with Dex
same,histological protection of the tarsus,[2]; 55 mg/kg,provided protection in the tarsus
same,"histopathology scores, significance versus vehicle","[2]; 55 mg/kg, p<0.05",Significance was only observed for the degree of inflammation
same,histological protection of carpus and tarsus,[2]; 100 mg/kg,provided the best protection for both regions
same,histological protection of the tarsus,[2]; 100 mg/kg,provided protection in the tarsus
same,"histopathology scores, significance versus vehicle","[2]; 100 mg/kg, p<0.01",Significance was only observed for the degree of inflammation
same,air pouch fluid IL-6 expression,[3],inhibit the expression of IL-6 to below that of Dex
same,"angiogenesis, total hemoglobin content (Drabkin's assay)",[3],angiogenesis was impacted
same,cellular accumulation in the air pouch (total cell count),[3],significantly decreased cellular accumulation in the air pouch
